Values quoted from earlier work in US9814782B2, “Modified antibody in which motif comprising cysteine residue is bound, modified antibody-drug conjugate comprising the modified antibody, and production method for same” (Alteogen Inc., priority 2012, dated 2017).

Conditions: known value; read-out: IC50 value in a cell proliferation inhibition assay

For Auristatin, the IC50 is listed as 200 to 300 pM.
